Experimental data published in the CombiSolv-Exp solvation set (Vermeire and Green 2021).

Experiment: solvent given as SMILES

CC(C)O
Settings | solvation free energy, 298 K [kcal/mol]
in C1CCOC1 | -4.75
in C1COCCO1 | -4.37
in CC#N | -4.42
in CC(=O)CC(C)=O | -4.41
in CC(=O)N(C)C | -5.29
in CC(C)(C)O | -5.02
in CC(C)CC(C)(C)C | -2.9
in CC(C)CCCC(C)CCCC(C)CCCCC(C)CCCC(C)CCCC(C)C | -2.29
in CC(Cl)(Cl)Cl | -4.07
in CCC(C)=O | -4.54
in CCCC(C)O | -4.85
in CCCCCC | -2.76
in CCCCCCC | -2.71
in CCCCCCCCCCCCCCCC | -2.37
in CCCCCCCCCCO | -4.49
in CCCCCCCCO | -4.61
in CCCCCO | -4.99
in CCCCN(C=O)CCCC | -4.71
in CCCCO | -5.02
in CCCO | -5.07
in CCCOCCC | -3.74
in CCN(CC)C(C)=O | -5.2
in CCNC(C)=O | -5.09
in CCNC=O | -5.03
in CCO | -5.27
in CCOC(=O)c1ccccc1C(=O)OCC | -3.75
in CCOC(C)=O | -4.13
in CCOCCO | -4.87
in CCOP(=O)(OCC)OCC | -4.97
in CN1CCCC1=O | -5.12
in CN1CCN(C)C1=O | -5.1
in CNC(C)=O | -5.12
in CO | -5.53
in COC(C)(C)C | -4.22
in COC(C)=O | -4.46
in Cc1ccc(C)cc1 | -3.39
in Cc1cccc(C)c1 | -3.33
in O | -4.76
in O=CN1CCOCC1 | -4.53
in OCCOCCO | -4.77
in [2H]O[2H] | -4.86

[HH]
Settings | solvation free energy, 298 K [kcal/mol]
in Brc1ccccc1 | 1.77
in C1CCNC1 | 1.62
in C1CCNCC1 | 1.63
in C1CCOC1 | 1.46
in C1COCCO1 | 1.76
in C=CCCCCCC | 1.36
in C=CCCCCCCC=C | 1.6
in CC1COC(=O)O1 | 2.04
in CC#N | 1.45
in CC(=O)OCC(C)C | 1.49
in CC(C)(C)O | 1.49
in CC(C)=O | 1.38
in CC(C)CC(C)(C)C | 1.28
in CC(C)CCO | 1.76
in CC(C)CO | 1.53
in CC(C)N | 1.3
in CC(C)O | 1.45
in CCC(C)=O | 1.45
in CCC(C)O | 1.56
in CCCCC(CC)CO | 1.64
in CCCCCC | 1.24
in CCCCCCC | 1.29
in CCCCCCCC | 1.35
in CCCCCCCCCC | 1.49
in CCCCCCCCCCCCO | 1.9
in CCCCCCCCCCO | 1.83
in CCCCCCCCCO | 1.8
in CCCCCCO | 1.61
in CCCCCO | 1.64
in CCCCCOC(C)=O | 1.91
in CCCCN(CCCC)CCCC | 1.53
in CCCCNCCCC | 1.48
in CCCCO | 1.56
in CCCCOC(C)=O | 1.5
in CCCCOCCCC | 1.42
in CCCCOCCO | 1.67
in CCCN | 1.35
in CCCO | 1.52
in CCN | 1.24
in CCN(CC)CC | 1.33
in CCO | 1.47
in CCOC(C)=O | 1.46
in CCOCC | 1.15
in CCOCCO | 1.7
in CN1CCCC1 | 1.38
in CN1CCCC1=O | 1.98
in CN(C)C=O | 1.84
in CN(C)CCCN | 1.63
in CO | 1.35
in COC(C)=O | 1.42
in COCCO | 1.84
in Cc1cccc(C)c1 | 1.49
in Cc1ccccc1 | 1.62
in ClC(Cl)(Cl)Cl | 1.51
in ClC(Cl)Cl | 1.61
in ClCCCl | 1.72
in ClCCl | 1.57
in Clc1ccccc1 | 1.65
in NCCCN | 2.05
in NCCN | 2.15
in O=C1CCCC1 | 1.72
in O=C1CCCCC1 | 1.75
in OCCO | 2.38
in c1ccccc1 | 1.58

O=COc1ccccc1
Settings | solvation free energy, 298 K [kcal/mol]
in O | -3.82

CCCCCCCCCCOC(=O)c1ccccc1C(=O)OCCCCCCCCCC
Settings | solvation free energy, 298 K [kcal/mol]
in O | -6.22

CNC(=O)Oc1cccc2c1OC(C)(C)C2
Settings | solvation free energy, 298 K [kcal/mol]
in O | -9.61

O=[N+]([O-])c1cccc(Cl)c1Cl
Settings | solvation free energy, 298 K [kcal/mol]
in C1CCCCC1 | -8.4
in CC(C)O | -8.56
in CCCCCC | -7.97
in CCCCCCC | -8.07
in CCCCO | -8.71
in CCCO | -8.65
in CCOC(C)=O | -9.93
in ClC(Cl)(Cl)Cl | -9.46
in O | -4.22

CCCCCCCCOC(=O)c1ccccc1C(=O)OCCCC
Settings | solvation free energy, 298 K [kcal/mol]
in O | -6.83

CC(=O)OCCC(C)C
Settings | solvation free energy, 298 K [kcal/mol]
in CCCCCCCCCCCCCCCC | -4.96
in CCCCCCCCO | -5.34
in O | -2.29
in [2H]O[2H] | -2.36

COC(C)(C)C
Settings | solvation free energy, 298 K [kcal/mol]
in CC(=O)N(C)C | -3.29
in CC(C)(C)O | -3.81
in CC(C)CC(C)(C)C | -3.58
in CC(C)CCl | -3.89
in CCC(C)Cl | -3.88
in CCCCCCC | -3.54
in CCCCCCCC | -3.51
in CCCCCCCCCC | -3.48
in CCCCCCCCCCCCCCCC | -3.22
in CCCCCCCCCCO | -3.73
in CCCCCCCCO | -3.52
in CCCCCCO | -3.55
in CCCCCl | -3.91
in CCCCN(C=O)CCCC | -3.34
in CCN1CCCC1=O | -3.21
in CCN(CC)C(C)=O | -3.4
in CCNC(C)=O | -3.26
in CCNC=O | -3.21
in CN1CCCCC1=O | -3.22
in CN(C)C=O | -3.18
in CNC(C)=O | -3.12
in CNC=O | -3.08
in CO | -3.78
in COC(=O)OC | -3.52
in ClC(Cl)(Cl)Cl | -3.94
in ClC(Cl)Cl | -4.88
in O | -2.02
in [2H]O[2H] | -2.15

ClCC(Cl)(Cl)Cl
Settings | solvation free energy, 298 K [kcal/mol]
in O | -1.43

CC(Cl)Cl
Settings | solvation free energy, 298 K [kcal/mol]
in CCCCCCCCO | -3.29
in ClC(Cl)(Cl)Cl | -3.78
in ClC(Cl)Cl | -4.11
in ClCCCl | -4.02
in O | -0.84

C=C1CCC2C(C)CCC3C(C12)C3(C)C (stereo not given)
Settings | solvation free energy, 298 K [kcal/mol]
in O | 0.42

Clc1ccc(Cl)c(-c2ccccc2)c1
Settings | solvation free energy, 298 K [kcal/mol]
in O | -2.46

CN(C)C(=O)c1ccccc1
Settings | solvation free energy, 298 K [kcal/mol]
in O | -9.29

CS
Settings | solvation free energy, 298 K [kcal/mol]
in O | -1.18

CCC(C)(C)CC
Settings | solvation free energy, 298 K [kcal/mol]
in C=CCCCCCCCCCCCCCC | -3.89

CC(=O)O
Settings | solvation free energy, 298 K [kcal/mol]
in C=CCCCCCCC=C | -2.71
in C=CCCCCCCCCCCCCCC | -2.41
in [2H]O[2H] | -6.55

C#CC=C
Settings | solvation free energy, 298 K [kcal/mol]
in C1COCCO1 | -3.21
in CC(C)=O | -3.19
in CC(C)CC(C)(C)C | -2.21
in CN(C)C=O | -3.28
in COC(C)=O | -3.19
in Cc1ccc(C)cc1 | -3.07
in O | 0.04

CCCCCCBr
Settings | solvation free energy, 298 K [kcal/mol]
in O | 0.18

Nc1ncnc2c1ncn2C1CC(O)C(CO)O1 (stereo not given)
Settings | solvation free energy, 298 K [kcal/mol]
in C=CCCCCCCC=C | -16.6
in C=CCCCCCCCCCCCCCC | -15.8
in O | -24.3

c1cc2ccc3ccc4ccc5cccc6c(c1)c2c3c4c56
Settings | solvation free energy, 298 K [kcal/mol]
in O | -8.98
in O=C1CCCCC1 | -19.4

Brc1cccc(Br)c1
Settings | solvation free energy, 298 K [kcal/mol]
in O | -1.99

CCC(C)(C)C
Settings | solvation free energy, 298 K [kcal/mol]
in C=CCCCCCCCCCCCCCC | -3.12
in CC#N | -2.32
in CC(C)CCCC(C)CCCC(C)CCCCC(C)CCCC(C)CCCC(C)C | -3
in CC(C)O | -2.73
in CCC(C)(C)OC | -3.49
in CCCCCC | -3.63
in CCCCCCCCCC | -3.38
in CCCCCCCCCCCCCCCC | -3.18
in CCCCCCCCCOC(=O)c1ccccc1C(=O)OCCCCCCCCC | -2.76
in CCCCCO | -2.93
in CCCCO | -2.89
in CN1CCCC1=O | -2.13
in CN(C)C=O | -2.33
in O | 2.51

O=C(OCc1ccccc1)c1ccccc1C(=O)OCc1ccccc1
Settings | solvation free energy, 298 K [kcal/mol]
in O | -11.3

FC(F)F
Settings | solvation free energy, 298 K [kcal/mol]
in CCCCCCCC(=O)OCC(COC(=O)CCCCCCC)OC(=O)CCCCCCC | -0.46
in CCCCCCCCC | 0.06
in CCCCCCCCO | -0.21
in CN1CCCC1=O | -1.35
in CN(C)C=O | -0.86
in O | 0.7

Clc1ccc(-c2ccc(Cl)c(Cl)c2Cl)cc1Cl
Settings | solvation free energy, 298 K [kcal/mol]
in CCCCCCCCO | -12.9
